We go through two compounds from US20090099140A1, “20-Alkyl, Gemini Vitamin D3 Compounds and Methods of Use Thereof” (BioXell S.p.A., priority 2005, published 2009).

Data set [1] deals with female C57BL/6 mice. Kind of data set: Determination of maximum tolerated dose (MTD), highest oral dose without hypercalcemia (serum calcium). Particulars: eight week-old female C57BL/6 mice, p.o. daily for four days in miglyol; highest dose without hypercalcemia (serum calcium >10.7 mg/dl) on day five. Format: in vivo. As to the method:
(§1) The maximum tolerated dose of the vitamin D3 compounds of the invention were determined in eight week-old female C57BL/6 mice (3 mice/group) dosed orally (0.1 ml/mouse) with various concentrations of Vitamin D3 analogs daily for four days. Analogs were formulated in miglyol for a final concentration of 10, 30, 100 and 300 μg/kg when given at 0.1 ml/mouse p.o. daily. Blood for serum calcium assay was drawn by tail bleed on day five, the final day of the study. Serum calcium levels were determined using a colorimetric assay (Sigma Diagnostics, procedure no. 597). The highest dose of analog tolerated without inducing hypercalcemia (serum calcium >10.7 mg/dl) was taken as the maximum tolerated does (MTD).

For data set [2], the system named is IFN-γ production. Kind of data set: IFN-γ production by allogeneic T cell activation in the mixed leukocyte response (MLR). Type of data set: cell-based. As to conditions: MLR of allogeneic PBMC from 2 different donors, 5 days, IFN-γ by ELISA, 50% inhibition of IFN-γ production. The protocol: Immature dendritic cells (DC) were prepared as described in Romani, N. et al., J. Immunol. Meth. 196:137. IFN-γ production by allogeneic T cell activation in the mixed leukocyte response (MLR) was determined as described in Penna, G., et al., J. Immunol., 164: 2405-2411 (2000).
Briefly, peripheral blood mononuclear cells (PBMC) were separated from buffy coats by Ficoll gradient and the same number (3×105) of allogeneic PBMC from 2 different donors were co-cultured in 96-well flat-bottom plates. After 5 days, IFN-γ production in the MLR assay was measured by ELISA and the results expressed as amount (nM) of test compound required to induce 50% inhibition of IFN-γ production (IC50) (Table 1).
A general note: ELISA stands for enzyme-linked immunosorbent assay.

The nature of data set [3]: Determination of maximum tolerated dose (MTD), highest oral dose without hypercalcemia (serum calcium). Format: in vivo. As to conditions: mouse, in vivo, po; eight week-old female C57BL/6 mice, p.o. daily for four days in miglyol; highest dose without hypercalcemia (serum calcium >10.7 mg/dl) on day five; read-out: MTD (mice). As to the method: as §1

For “1α-Fluoro-25-hydroxy-20S-20-(4-hydroxy-5,5,5-trideutero-4-trideuteromethyl-pentyl)-23E-ene-26,27-hexafluorocholecalciferol [Compound 21]”, in data set [1], the “MTD (mice)” value was 0.01 mg/kg. In data set [2], this compound gave a half-maximal inhibitory concentration (IC50) of 0.0071 nM.
On to `C=C1/C(=C\C=C2/CCC[C@@]3(C)C2CC[C@@H]3[C@](C)(C/C=C/C(O)(C(F)(F)F)C(F)(F)F)CCCC(C)(C)O)CC(O)C[C@@H]1F` (stereo partly drawn) [Compound 15, (20S)-1α-Fluoro-25-hydroxy-20-[(2E)-5,5,5-trifluoro-4-hydroxy-4-trifluoromethyl-pent-2-enyl]-cholecalciferol], for which the MTD at 4 days in data set [3] is 0.01 mg/kg. Moreover, the half-inhibitory concentration (IC50) in data set [2] (120 h) turned out to be 0.119 nM.

Broadly, the IC50 is the concentration that inhibits the measured activity by half. As a reminder, the MTD is the highest dose tested that stayed within the study's limit of toxicity.
